Data published in ChEMBL document CHEMBL3792327, “Discovery and modelling studies of natural ingredients from Gaultheria yunnanensis (FRANCH.) against phosphodiesterase-4” (Eur J Med Chem, 2016).
Values belong to the compound of their own block, whether it stands above or below them.

What was measured:
[1] = molecular target: 3',5'-cyclic-AMP phosphodiesterase 4D (Homo sapiens, UniProt Q08499); experiment: Inhibition of PDE4D2 catalytic domain (86 to 413 residues) (unknown origin) using [3H]-cAMP as substrate after 15 mins by liquid scintillation counting method
[2] = molecular target: cGMP-specific 3',5'-cyclic phosphodiesterase (Homo sapiens, UniProt O76074); experiment: Inhibition of PDE5A1 catalytic domain (535 to 860 residues) (unknown origin) using [3H]-cGMP as substrate after 15 mins by liquid scintillation counting method
Homo sapiens [3] = species: Homo sapiens; experiment: Selectivity index, ratio of IC50 for PDE5A1 catalytic domain (535 to 860 residues) (unknown origin) to IC50 for PDE4D2 catalytic domain (86 to 413 residues) (unknown origin)
Homo sapiens [4] = species: Homo sapiens; experiment: Selectivity index, ratio of IC50 for PDE10A2 catalytic domain (448 to 789 residues) (unknown origin) to IC50 for PDE4D2 catalytic domain (86 to 413 residues) (unknown origin)
[5] = molecular target: High affinity cGMP-specific 3',5'-cyclic phosphodiesterase 9A (Homo sapiens, UniProt O76083); experiment: Inhibition of PDE9A2 catalytic domain (181 to 506 residues) (unknown origin) using [3H]-cGMP/[3H]-cAMP as substrate after 15 mins by liquid scintillation counting method
[6] = molecular target: cAMP and cAMP-inhibited cGMP 3',5'-cyclic phosphodiesterase 10A (Homo sapiens, UniProt Q9Y233); experiment: Inhibition of PDE10A2 catalytic domain (448 to 789 residues) (unknown origin) using [3H]-cGMP/[3H]-cAMP as substrate after 15 mins by liquid scintillation counting method
Homo sapiens [7] = species: Homo sapiens; experiment: Selectivity index, ratio of IC50 for PDE1B2 catalytic domain (10 to 487 residues) (unknown origin) to IC50 for PDE4D2 catalytic domain (86 to 413 residues) (unknown origin)
Homo sapiens [8] = species: Homo sapiens; experiment: Selectivity index, ratio of IC50 for PDE2A3 catalytic domain (222 to 904 residues) (unknown origin) to IC50 for PDE4D2 catalytic domain (86 to 413 residues) (unknown origin)
Homo sapiens [9] = species: Homo sapiens; experiment: Selectivity index, ratio of IC50 for PDE9A2 catalytic domain (181 to 506 residues) (unknown origin) to IC50 for PDE4D2 catalytic domain (86 to 413 residues) (unknown origin)
[10] = molecular target: cGMP-dependent 3',5'-cyclic phosphodiesterase (Homo sapiens, UniProt O00408); experiment: Inhibition of PDE2A3 catalytic domain (222 to 904 residues) (unknown origin) using [3H]-cGMP/[3H]-cAMP as substrate after 15 mins by liquid scintillation counting method
[11] = molecular target: Dual specificity calcium/calmodulin-dependent 3',5'-cyclic nucleotide phosphodiesterase 1B (Homo sapiens, UniProt Q01064); experiment: Inhibition of PDE1B2 catalytic domain (10 to 487 residues) (unknown origin) using [3H]-cGMP/[3H]-cAMP as substrate after 15 mins by liquid scintillation counting method
Dual specificity calcium/calmodulin-dependent 3',5'-cyclic nucleotide phosphodiesterase 1B, sequence (Q01064 whole entry, the tested form may be a part): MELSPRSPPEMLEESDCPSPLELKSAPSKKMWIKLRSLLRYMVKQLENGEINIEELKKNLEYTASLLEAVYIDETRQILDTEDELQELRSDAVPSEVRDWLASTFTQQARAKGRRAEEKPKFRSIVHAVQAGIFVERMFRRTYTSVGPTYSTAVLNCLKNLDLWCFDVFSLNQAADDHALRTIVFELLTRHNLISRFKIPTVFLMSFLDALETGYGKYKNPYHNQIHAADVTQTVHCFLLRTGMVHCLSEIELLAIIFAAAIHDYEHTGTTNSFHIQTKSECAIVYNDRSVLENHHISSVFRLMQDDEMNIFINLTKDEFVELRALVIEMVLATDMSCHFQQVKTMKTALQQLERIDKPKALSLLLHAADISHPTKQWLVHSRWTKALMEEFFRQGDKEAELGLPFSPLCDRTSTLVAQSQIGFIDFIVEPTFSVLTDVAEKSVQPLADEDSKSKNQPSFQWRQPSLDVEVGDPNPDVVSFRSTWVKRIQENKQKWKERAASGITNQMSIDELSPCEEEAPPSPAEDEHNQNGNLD

3',5'-cyclic-AMP phosphodiesterase 4D, sequence (Q08499 whole entry, the tested form may be a part): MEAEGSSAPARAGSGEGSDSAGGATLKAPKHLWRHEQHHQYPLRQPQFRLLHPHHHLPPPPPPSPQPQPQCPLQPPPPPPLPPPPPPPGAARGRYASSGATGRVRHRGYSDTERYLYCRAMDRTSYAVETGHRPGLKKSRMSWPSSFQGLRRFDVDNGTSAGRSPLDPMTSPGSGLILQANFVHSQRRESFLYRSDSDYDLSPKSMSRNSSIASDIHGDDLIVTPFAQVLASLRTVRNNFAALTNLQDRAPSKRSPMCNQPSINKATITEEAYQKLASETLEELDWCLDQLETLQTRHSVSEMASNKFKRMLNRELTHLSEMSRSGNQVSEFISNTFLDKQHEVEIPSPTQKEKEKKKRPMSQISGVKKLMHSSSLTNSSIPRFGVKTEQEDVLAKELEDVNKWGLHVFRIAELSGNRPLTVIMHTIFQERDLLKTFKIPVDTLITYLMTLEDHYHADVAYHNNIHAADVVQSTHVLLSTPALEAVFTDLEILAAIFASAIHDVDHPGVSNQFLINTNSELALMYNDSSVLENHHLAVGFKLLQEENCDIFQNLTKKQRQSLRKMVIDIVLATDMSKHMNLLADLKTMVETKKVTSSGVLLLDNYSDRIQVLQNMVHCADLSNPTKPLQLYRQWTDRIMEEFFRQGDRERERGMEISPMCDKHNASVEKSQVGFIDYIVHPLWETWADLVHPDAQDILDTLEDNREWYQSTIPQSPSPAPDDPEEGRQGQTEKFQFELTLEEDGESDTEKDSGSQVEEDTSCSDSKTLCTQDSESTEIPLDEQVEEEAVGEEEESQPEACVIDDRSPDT
cGMP-dependent 3',5'-cyclic phosphodiesterase, sequence (O00408 whole entry, the tested form may be a part): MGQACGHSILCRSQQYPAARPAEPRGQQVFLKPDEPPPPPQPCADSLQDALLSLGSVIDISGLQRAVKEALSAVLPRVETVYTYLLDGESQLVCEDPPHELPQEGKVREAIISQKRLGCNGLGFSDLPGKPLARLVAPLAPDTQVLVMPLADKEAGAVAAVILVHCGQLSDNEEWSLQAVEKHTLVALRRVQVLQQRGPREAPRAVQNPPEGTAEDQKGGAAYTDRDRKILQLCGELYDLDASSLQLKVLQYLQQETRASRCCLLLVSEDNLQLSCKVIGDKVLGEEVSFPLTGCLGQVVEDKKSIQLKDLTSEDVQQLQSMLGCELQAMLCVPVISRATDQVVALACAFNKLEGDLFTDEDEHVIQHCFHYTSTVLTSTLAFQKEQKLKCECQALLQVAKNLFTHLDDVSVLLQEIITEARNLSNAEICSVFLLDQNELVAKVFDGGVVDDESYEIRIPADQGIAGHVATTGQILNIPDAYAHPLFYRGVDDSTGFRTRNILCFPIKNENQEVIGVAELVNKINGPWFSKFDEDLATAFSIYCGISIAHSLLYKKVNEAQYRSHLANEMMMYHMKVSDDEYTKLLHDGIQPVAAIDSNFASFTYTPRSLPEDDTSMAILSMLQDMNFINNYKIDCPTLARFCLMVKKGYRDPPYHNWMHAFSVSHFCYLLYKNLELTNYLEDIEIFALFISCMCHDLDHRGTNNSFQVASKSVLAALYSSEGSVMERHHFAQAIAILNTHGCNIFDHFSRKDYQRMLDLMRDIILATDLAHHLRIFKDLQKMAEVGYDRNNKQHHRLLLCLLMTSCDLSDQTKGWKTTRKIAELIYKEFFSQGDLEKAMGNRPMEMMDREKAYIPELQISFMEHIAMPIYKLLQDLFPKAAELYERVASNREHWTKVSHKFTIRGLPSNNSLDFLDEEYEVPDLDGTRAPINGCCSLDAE
cAMP and cAMP-inhibited cGMP 3',5'-cyclic phosphodiesterase 10A, sequence (Q9Y233 whole entry, the tested form may be a part): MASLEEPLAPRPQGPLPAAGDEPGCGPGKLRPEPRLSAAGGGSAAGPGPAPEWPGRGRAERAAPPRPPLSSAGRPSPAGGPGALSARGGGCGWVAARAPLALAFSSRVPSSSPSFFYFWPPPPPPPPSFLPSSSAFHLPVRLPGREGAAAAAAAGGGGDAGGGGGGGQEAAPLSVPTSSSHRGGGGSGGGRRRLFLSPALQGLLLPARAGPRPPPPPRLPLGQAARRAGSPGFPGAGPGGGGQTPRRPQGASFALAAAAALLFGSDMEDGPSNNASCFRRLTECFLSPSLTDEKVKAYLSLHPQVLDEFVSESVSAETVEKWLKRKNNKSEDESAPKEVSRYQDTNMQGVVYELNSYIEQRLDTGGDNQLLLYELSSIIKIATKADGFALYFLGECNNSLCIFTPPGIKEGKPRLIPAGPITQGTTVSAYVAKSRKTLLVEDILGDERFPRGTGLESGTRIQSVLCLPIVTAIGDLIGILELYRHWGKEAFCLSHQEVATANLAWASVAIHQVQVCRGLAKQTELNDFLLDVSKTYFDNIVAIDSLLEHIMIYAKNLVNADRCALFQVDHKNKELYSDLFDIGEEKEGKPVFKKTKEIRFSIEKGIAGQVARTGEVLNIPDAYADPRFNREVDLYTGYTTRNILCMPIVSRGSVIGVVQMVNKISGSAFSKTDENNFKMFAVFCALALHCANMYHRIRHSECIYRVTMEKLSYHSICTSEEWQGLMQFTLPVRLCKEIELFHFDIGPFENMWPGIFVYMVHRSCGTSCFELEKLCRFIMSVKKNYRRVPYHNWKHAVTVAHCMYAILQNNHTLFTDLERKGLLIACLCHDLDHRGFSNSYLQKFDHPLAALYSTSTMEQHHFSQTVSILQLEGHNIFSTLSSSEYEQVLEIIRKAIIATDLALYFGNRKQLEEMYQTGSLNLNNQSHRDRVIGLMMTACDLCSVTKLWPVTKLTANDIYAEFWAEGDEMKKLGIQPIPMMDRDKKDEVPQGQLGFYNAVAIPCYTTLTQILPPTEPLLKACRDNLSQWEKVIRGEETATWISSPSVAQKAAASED
High affinity cGMP-specific 3',5'-cyclic phosphodiesterase 9A, sequence (O76083 whole entry, the tested form may be a part): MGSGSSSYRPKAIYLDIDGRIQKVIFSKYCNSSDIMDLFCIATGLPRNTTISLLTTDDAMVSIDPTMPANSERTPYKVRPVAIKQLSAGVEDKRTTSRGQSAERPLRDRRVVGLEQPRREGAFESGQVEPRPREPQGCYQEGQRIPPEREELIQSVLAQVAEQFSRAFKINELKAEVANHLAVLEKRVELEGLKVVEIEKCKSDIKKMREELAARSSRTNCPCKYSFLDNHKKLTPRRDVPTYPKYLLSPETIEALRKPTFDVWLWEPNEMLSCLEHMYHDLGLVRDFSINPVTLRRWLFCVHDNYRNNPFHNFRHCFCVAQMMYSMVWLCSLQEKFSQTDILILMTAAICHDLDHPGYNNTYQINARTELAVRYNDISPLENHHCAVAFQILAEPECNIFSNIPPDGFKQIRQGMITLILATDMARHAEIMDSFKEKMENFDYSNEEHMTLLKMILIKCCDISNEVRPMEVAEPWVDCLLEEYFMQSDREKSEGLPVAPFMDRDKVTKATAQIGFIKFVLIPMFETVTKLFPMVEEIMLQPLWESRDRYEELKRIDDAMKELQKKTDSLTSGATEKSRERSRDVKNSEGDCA

SMILES: CC1=CC(=O)CC(C)(C)[C@]1(O)/C=C/[C@@H](C)O
IC50 [1]: > 20 µM

SMILES: COc1cc(CCCO)cc(OC)c1O
IC50 [1]: > 20 µM

SMILES: C=C1CC[C@]2(C(=O)O)CC[C@]3(C)C(=CC[C@@H]4[C@@]5(C)C[C@@H](O)[C@@H](O)C(C)(C)[C@@H]5CC[C@]43C)[C@@H]2[C@H]1C
IC50 [1]: > 20 µM

SMILES: C=C1CC[C@]2(C(=O)O)CC[C@]3(C)C(=CC[C@@H]4[C@@]5(C)C[C@@H](O)[C@@H](OC(=O)/C=C/c6ccc(O)cc6)C(C)(C)[C@@H]5CC[C@]43C)[C@@H]2[C@H]1C
IC50 [2]: 3.81 µM | Ratio IC50 (Homo sapiens [3]): 16 | Ratio IC50 (Homo sapiens [4]): > 82 | IC50 [5]: 4.83 µM | IC50 [6]: > 20 µM | Ratio IC50 (Homo sapiens [7]): 11 | IC50 [1]: 0.245 µM | Ratio IC50 (Homo sapiens [8]): > 204 | Ratio IC50 (Homo sapiens [9]): 20 | IC50 [10]: > 50 µM | IC50 [11]: 2630 nM

SMILES: C=C1CC[C@]2(C(=O)O)CC[C@]3(C)C(=CC[C@@H]4[C@@]5(C)C[C@@H](O)[C@@H](OC(=O)/C=C\c6ccc(O)cc6)C(C)(C)[C@@H]5CC[C@]43C)[C@@H]2[C@H]1C
IC50 [1]: 0.542 µM

Second part, the compound after the results:

IC50 [1]: > 20 µM
SMILES: COc1cc([C@H]2Oc3c(OC)cc(CCCO)cc3[C@@H]2CO[C@@H]2OC[C@@H](O)[C@H](O)[C@H]2O)ccc1O

IC50 [1]: > 20 µM
SMILES: COc1cc([C@H]2c3c(cc(OC)c(O)c3OC)C[C@@H](CO)[C@@H]2CO[C@@H]2OC[C@@H](O)[C@H](O)[C@H]2O)cc(OC)c1O [LYONISIDE]

IC50 [1]: > 20 µM
SMILES: COc1cc([C@@H]2Oc3c(OC)cc(CCCO)cc3[C@H]2CO[C@@H]2OC[C@@H](O)[C@H](O)[C@H]2O)ccc1O

IC50 [1]: > 20 µM
SMILES: COc1cc([C@H]2c3cc(O)c(OC)cc3C[C@@H](CO)[C@@H]2CO[C@@H]2OC[C@@H](O)[C@H](O)[C@H]2O)ccc1O
